Patent US20110256241A1, “METHODS AND COMPOSITIONS FOR THE TREATMENT OF CANCER” (TRASLATIONAL CANCER DRUGS PHARMA, S.L., priority 2008, published 2011)

Legend:
[1] = system: H460 cells; assay: Cell proliferation assay (MTT); type: cell-based, human
Method: (§1) All cell lines used in this study were maintained under standard conditions of temperature (37° C.), humidity (95%), and carbon dioxide (5%). Human primary bronchial epithelial cells, NHBE (BEC) (Cambrex, CC-2541) were grown in BEGM (Bronchial Epithelial cell growth media) BulletKit (Cambrex, CC-3170). Human primary mammary epithelial cells, HMEC (Clonetics, CC-2551) were grown in MEBM medium supplemented with a bullet kit (Clonetics, CC-3150). Epithelial non-small lung cancer cells H460 and H1299, and small cell lung cancer cell lines H510 and H82 were maintained in RPMI supplemented with 10% Fetal Bovine Serum (FBS) (Life Technologies, Grand Island, N.Y.).
(§2) Cells were seeded on 96-well plates (BD, Falcon, Bioscience, San Jose, Calif., USA) at a density of 6000 cells/well, and incubated for 24 h under standard conditions. Then, cells were treated with different concentrations of the ChoK inhibitors (quadruplicates of each concentration) and maintained for 72 hours. […] Absorbance is read at 595 nm in a VersaMax Microplate Reader (Molecular Devices, Sunnyvale, Calif., USA). For sensitization with acid ceramidase inhibitor, cells were pre-treated […] with the correspondent IC50 for NOE before treatment with ChoK inhibitors. NOE (N-Oleoyl ethanolamine) was obtained from Calbiochem (La Jolla, Calif., USA).
Thus, disruption in the levels of acid ceramidase may allow ChoK inhibitors to have a better effect in these cells. To verify this hypothesis, we used the previously characterized acid ceramidase inhibitor, N-Oleoylethanolamine (NOE) (Grijalvo S., Chem Phys Lipids. 2006; 144:69-84), to investigate if the inhibition of acid ceramidase sensitizes tumour cell lines to ChoK inhibitors. To that end, H460 cells were pre-treated with NOE for three hours to inhibit acid ceramidase.
H460 cells were pre-treated with these compounds for three hours to inhibit ceramidases. […] Furthermore, the combined use of ChoK inhibitors and acid ceramidase inhibitors provides a further stronger anticancer activity.

[2] = system: primary cultures of tumours of patients with NSCLC; assay: Primary cultures of NSCLC tumours, crystal violet quantification; type: cell-based, human; details: primary NSCLC tumour cultures, 0-20 μM, 10 days
Method: Resected tissues from NSCLC patients were dissociated (Cell dissociation sieve-tissued grinder Kit CD1, SIGMA), and the obtained cells were seeded in 24 well plates (BD, Falcon, Bioscience, San Jose, Calif., USA). […] The final persistent population in each well was quantified by the method of Cristal Violet as previously described (Rodríguez-González, A. et al., Oncogene, 22:8803-8812). […]

[3] = system: H510 cells; assay: Cell proliferation assay (MTT); type: cell-based, human
Method: as §1
as §2, with “conditions.” for “conditions. Then, cells were treated with different concentrations of the ChoK inhibitors (quadruplicates of each concentration) and maintained for 72 hours.”

[4] = system: H1299 cells; assay: Cell proliferation assay (MTT); type: cell-based, human
Method: as §1
as §2, with “conditions.” for “conditions. Then, cells were treated with different concentrations of the ChoK inhibitors (quadruplicates of each concentration) and maintained for 72 hours.”

[5] = system: H82 cells; assay: Cell proliferation assay (MTT); type: cell-based, human
Method: as §1
as §2, with “conditions.” for “conditions. Then, cells were treated with different concentrations of the ChoK inhibitors (quadruplicates of each concentration) and maintained for 72 hours.”

[6] = system: Primary BEC (human primary bronchial epithelial cells); assay: Cell proliferation assay (MTT); type: cell-based; details: 48 h, inhibitor and unit not printed in table (MN58b, μM), read-out: IC50 48 h
Method: as §1
as §2, with “conditions.” for “conditions. Then, cells were treated with different concentrations of the ChoK inhibitors (quadruplicates of each concentration) and maintained for 72 hours.”

[7] = system: SW62 colon cancer cells; assay: QT-PCR validation of 5-FU metabolization pathway genes; type: cell-based, human; design: key: DR (Down-regulation); UR (Up-regulation)
Method: (§3) 1 μg of RNA was used to generate cDNA using High-Capacity cDNA Archive Kit (Applied Biosystems), and quantitative real-time PCR was carried out in triplicate using the ABI PRISM 7700 Sequence Detector (Applied Biosystems). GAPDH and 18S ribosomal mRNA were amplified as internal controls. Probes used for amplification were from Applied Biosystems as Taqman Gene Expression Assays (ASAH1: HS00602774—M1 Taqman Probe, ASAH2: HS00184096_M1 Taqman Probe and ASAH3: HS00370322_M1 Taqman Probe, DUT: HS00798995_S1 Taqman Probe, TYMS: HS00426591_M1 Taqman Probe, UPP1: HS00427695—M1 Taqman Probe, RRM2: HS00357247_G1 Taqman Probe). The 2-^ΔΔCt method was used (Livak K J., Methods. 2001; 25:402-8) to calculate the relative expression of each gene.

[8] = system: DLD-1 colon cancer cells; assay: as above; type: cell-based, human; design: key: DR (Down-regulation); UR (Up-regulation)
Method: as §3

[9] = system: HT29 colon cancer cells; assay: as above; type: cell-based, human; design: key: DR (Down-regulation); UR (Up-regulation)
Method: as §3

[10] = system: H460 xenografts; assay: NSCLC xenografts, in vivo tumor growth inhibition; details: FIG. 7A, single agents
Method: Indicated cells were resuspended in DMEM just before inoculation (10^6 cells/0.1 ml), and injected subcutaneously in nu/nu immunosuppressed mice. Mice were kept under standard laboratory conditions according to the guidelines of the Spanish Government. When tumours reached a mean volume of 0.1 cm^3, mice were randomized to control and treated groups. Treatments with the antitumoral agents (and vehicle for control mice) were performed i.p. with following the indicated schedules. Tumors were monitored three times a week by measuring the major (D) and minor (d) diameters, and tumour volume was calculated by V=(D*d^2)/2. Statistical analysis of significant changes in tumour growth was calculated using SPSS software v. 13.0.

Structure (SMILES): CN(C)c1cc[n+](Cc2ccc(CCCCc3ccc(C[n+]4ccc(N(C)C)cc4)cc3)cc2)cc1 [MN58b, 1,4-(4-4′-Bis-((4-(dimethylamine)pyridinium-1-yl)methyl)diphenyl)butane dibromide]
- figure in parentheses after IC50 48 h (not defined; fold vs primary cells) [1]: 6
- figure in parentheses after IC50 72 h (not defined; fold vs primary cells) [1]: 8
- figure in parentheses after IC50 144 h (not defined; fold vs primary cells) [1]: 3
- RESISTANT (number of samples) [2]: 28
- SENSITIVES (number of samples) [2]: 35
- figure in parentheses after IC50 48 h (not defined; fold vs primary cells) [3]: 41
- figure in parentheses after IC50 72 h (not defined; fold vs primary cells) [3]: 53
- figure in parentheses after IC50 144 h (not defined; fold vs primary cells) [3]: 27
- figure in parentheses after IC50 48 h (not defined; fold vs primary cells) [4]: 4
- figure in parentheses after IC50 72 h (not defined; fold vs primary cells) [4]: 8
- figure in parentheses after IC50 144 h (not defined; fold vs primary cells) [4]: 4
- figure in parentheses after IC50 48 h (not defined; fold vs primary cells) [5]: 24
- figure in parentheses after IC50 72 h (not defined; fold vs primary cells) [5]: 27
- figure in parentheses after IC50 144 h (not defined; fold vs primary cells) [5]: 12
- IC 50 [6]: 40.5 ± 6.2 µM
- RRM expression [7]: DR
- TYM expression [7]: DR
- UPP expression [7]: UR
- TYM expression [8]: DR
- UPP expression [8]: UR
- DUT expression [9]: DR
- RRM expression [9]: DR
- TYM expression [9]: DR
- Statistical significance (p), tumour growth [10]: 0.09
